Measured values from PubChem BioAssay (NCI).
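Dose response: 5 concentrations. Exposure: 48 h. Format: 96-well plates. Endpoint: linear interpolation; highest concentration if not reached. Abbreviation: GI50, concentration required for 50% inhibition of growth. Definition used: TGI = concentration required for complete inhibition of growth.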

How the values were obtained:
Test in all cases: DTP human tumour cell line panel, 48 h
[1] = tested on: LOX IMVI melanoma
[2] = tested on: HCT-15 colon
[3] = tested on: SN12C renal
[4] = tested on: SK-MEL-28 melanoma
[5] = tested on: EKVX NSCLC
[6] = tested on: SNB-19 CNS
[7] = tested on: CAKI-1 renal
[8] = tested on: OVCAR-8 ovarian
[9] = tested on: UO-31 renal
[10] = tested on: SR leukemia

Structure (SMILES) | GI50 [1] [µM] | TGI [1] [µM] | GI50 [2] [µM] | TGI [2] [µM] | GI50 [3] [µM] | TGI [3] [µM] | GI50 [4] [µM] | TGI [4] [µM] | GI50 [5] [µM] | TGI [5] [µM] | GI50 [6] [µM] | TGI [6] [µM] | GI50 [7] [µM] | TGI [7] [µM] | GI50 [8] [µM] | TGI [8] [µM] | GI50 [9] [µM] | TGI [9] [µM] | TGI [10] [µM] | GI50 [10] [µM]
CCC(=O)Sc1ccccc1C(=O)Nc1ccc(Cl)cc1 | 5.91 | 24.4 | 7.79 | > 100 | 4.26 | 41.8 | 9.33 | 57.7 | 7.16 | 75.2 | 16.6 | 68.8 | 10.2 | 38.4 | 17.4 | > 100 | 6.53 | > 100 |  | 
COc1cc(OC)cc(N2CCC(c3c(N)nc(N)nc3Cl)CC2)c1 |  | > 100 |  | > 100 |  | > 100 |  | > 100 |  | > 100 |  | > 100 |  | > 100 |  | > 100 |  | > 100 |  | 
COC(=O)c1ccc(CN2CCc3c([nH]c4ccccc34)C2CO)o1 (configuration not stated) |  |  |  | > 10 |  | > 10 |  | > 10 |  | > 10 |  |  |  | > 10 |  | > 10 |  |  | > 10 | 
CCN(CC)c1ccc(NC(C(=O)c2ccccc2)c2ccccc2)cc1 (configuration not stated) | 1.57 | 3 | 1.96 | 5.31 |  |  | 1.81 | 3.6 | 3.59 | 14.4 | 3.45 | 19.1 | 3.36 | 11.6 | 3.28 | > 100 | 1.9 | 4.18 | > 100 | 0.594
C=CCN1C(=O)CS/C1=N\NC(=O)c1c(C)nc2sccn12 |  | > 100 |  | > 100 |  | > 100 |  | > 100 |  | > 100 |  | > 100 |  | > 100 |  | > 100 |  |  | > 100 | 
[Cu+2].[Cu+2].[O-]c1ccccc1C=Nc1ccccc1[O-].[O-]c1ccccc1C=Nc1ccccc1[O-] | 4.12 | 17.5 | 7.25 | 21.5 | 13.7 | 27.3 | 13.3 | 26 | 11.8 | 25.9 | 5.32 | 17.8 | 10.8 | 22.8 | 8.16 | 31.6 | 12.6 | 25.2 |  | 
COc1nc(OC)c2c(=O)oc(-c3ccccc3)cc2n1 |  |  |  | > 100 |  | > 100 |  | > 100 |  | > 100 |  | > 100 |  | > 100 |  | > 100 |  | > 100 | > 100 | 
CCCCN(CC)C(=O)C(=O)C1C(=O)Nc2ccccc2S1=O (configuration not stated) |  | > 100 |  | > 100 |  | > 100 |  | > 100 |  | > 100 |  | > 100 |  | > 100 |  | > 100 |  | > 100 |  | 
OCC(O)CC[CH2][Sn]([c]1ccccc1)([c]1ccccc1)[c]1ccccc1 (configuration not stated) | 14.9 | 30.7 | 12.7 | 26.8 | 15.1 | 30.8 |  |  | 16.5 | 31.7 | 19.4 | 33.7 | 8.12 | 21.5 | 15.7 | 31.5 | 14.8 | 28.4 | > 100 | 49.3
O=C1CCC2(c3ccc(F)cc3)Nc3ccccc3N12 (configuration not stated) |  | > 100 |  | > 100 |  | > 100 |  | > 100 |  | > 100 |  |  |  | > 100 |  | > 100 |  | > 100 |  | 
COC(=O)C(=O)C(C(=O)C(=O)Nc1ccccc1C(=O)OC)c1nc2ccc(C(=O)c3ccccc3)cc2[nH]c1=O (configuration not stated) |  | > 100 |  | > 100 |  | > 100 |  | > 100 |  | > 100 |  |  |  | > 100 |  | > 100 |  | > 100 |  | 
c1ccc2c(c1)O[As](O[As]1Oc3ccccc3O1)O2 | 2.3 | 10.3 | 2.33 | 17 | 3.02 | 14.9 | 3.04 | 15.1 |  |  | 5.56 | 19.6 | 2.56 | 8.54 | 2.59 | 15.4 | 1.97 | 11.3 | 7.39 | 1.61
C=CC1CC12C(=O)C1OC2(C)C2C(=O)c3ccccc3C(=O)C12 (configuration not stated) | 12.7 | 68.7 | 41.9 | > 100 | > 56.3 | > 100 | > 71 | > 100 | > 100 | > 100 | > 47.7 | > 84.7 | 21.7 | 58.6 | > 42.8 | > 85.8 | > 87.3 | > 100 |  | 
COc1ccc2c(c1)Oc1nc(N)c(C#N)c(N)c1C2Sc1ccc(SC)cc1 (configuration not stated) | 1.68 | 3.21 | 1.58 | 3.33 | 1.64 | 3.06 | 1.71 | 3.15 | 1.66 | 3.09 | 1.77 | 3.18 |  |  | 1.76 | 3.19 | 1.51 | 2.84 | 6.66 | 2.25
CC(NC(=O)c1ccccc1)C(=O)N(Cc1ccccc1)Cc1ccccc1 (configuration not stated) |  | 47.7 |  | 88.9 |  | > 100 |  | 97.6 |  |  |  | > 100 |  | > 100 |  |  |  | 83.9 | 64.6 | 
O=C1c2ccn(CCCCN3CCOCC3)c2C(=O)c2c1c(O)c1ccccc1c2O | 3.58 | 23.1 | 3.82 | 25.5 | 11.4 | 24 | 25.8 | > 100 |  |  | 19.6 | 60.4 | 5.94 | 21 | 5.52 | 20 | 27.5 | > 100 | 33.6 | 4.55
CCCCOC1CC2(c3ccc(OC)cc3)C(=O)c3ccccc3N2O1 (configuration not stated) |  | > 10 |  | > 10 |  | > 10 |  |  |  | > 100 |  | > 10 |  | > 100 |  | > 100 |  | > 10 |  | 
CCOC(C)OCC#CCCBr (configuration not stated) |  | > 100 |  | > 100 |  | > 100 |  |  |  | > 100 |  | > 100 |  | > 100 |  | > 100 |  | > 100 |  | 
